Test results from PubChem BioAssay AID1322 (NMMLSC, 2008).
Active and inactive are the calls of the source. How the calls were made is not given here.

Target: Bcl-2-like protein 1 (Homo sapiens) (UniProt Q07817)
Assay: Bcl-XL binding to Bim peptide disruption – biochemical, multiplexed, bead flow cytometry, human Bcl-XL, dose response (AID 1322); on inhibition: test concentration not given here
Details: Bead-based flow cytometry, MCF; for inhibition: stronger effect = higher value

Sequence of Bcl-2-like protein 1 (Homo sapiens) (Q07817 whole entry, looked up): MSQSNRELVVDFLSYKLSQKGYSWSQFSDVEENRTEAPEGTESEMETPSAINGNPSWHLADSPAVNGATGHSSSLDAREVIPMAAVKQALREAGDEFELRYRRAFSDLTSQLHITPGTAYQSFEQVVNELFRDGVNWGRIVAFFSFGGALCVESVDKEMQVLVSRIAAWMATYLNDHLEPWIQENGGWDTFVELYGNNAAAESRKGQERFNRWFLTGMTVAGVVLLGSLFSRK

Row | Compound | inhibition | outcome
1 | Cc1onc(-c2ccccc2)c1C(=O)Nc1nnc(COc2ccc(Cl)cc2)s1 | inactive | –
2 | Cc1ccccc1-n1nc(SCC(=O)O)sc1=S | inactive | –
3 | CCOc1cc(CNc2ccc(N(C)C)cc2)cc(Br)c1OCC(=O)NC(C)(C)C | inactive | –
4 | O=C(c1cccc(Br)c1)N1CCN(c2cnn(-c3ccccc3)c(=O)c2Cl)CC1 | – | inactive
5 | Cn1c(=O)c2c(nc(NCCO)n2CCc2ccccc2)n(C)c1=O | inactive | –
6 | Fc1ccccc1/C=C1\CCCC2=C1NC(=S)NC2c1ccccc1F (stereo not given) | inactive | –
7 | O=C(Nc1ccccc1)Nc1ccc2ncoc2c1 | inactive | –
8 | Cc1noc(C)c1CN1C(=O)NC(Cc2ccccc2)(Cc2ccccc2)C1=O | inactive | –
9 | S=c1[nH]cc(-c2ccccc2)n1-c1ccccc1Cl | inactive | –
10 | NNC(=O)COc1ccccc1F | inactive | –
11 | Cc1ccc(/C=C2/NC(=O)N(Cc3ccc(Br)cc3)C2=O)o1 | inactive | –
12 | CN(Cc1ccccc1)C(=O)c1[nH]cnc1C(=O)N[C@@H](CCCCNC(=O)OC(C)(C)C)C(=O)OC(C)(C)C | inactive | –
13 | O=C(c1cnccn1)N(Cc1cccs1)C1(C(=O)NC2CCCCC2)CCCCC1 | – | inactive
14 | CN(CC(=O)O/N=C(\N)c1ccc([N+](=O)[O-])cc1)S(=O)(=O)c1ccccc1 | inactive | –
15 | O=C(NC1=C(Nc2ccc(F)cc2)C(=O)c2ccccc2C1=O)c1ccc(Cl)cc1 | inactive | –
16 | Cn1c(OCc2cccnc2)nc2c1c(=O)n(Cc1ccccc1)c(=O)n2C | inactive | –
17 | Cc1nonc1NC(=O)CSc1nnc(-c2ccoc2C)n1C | inactive | –
18 | O=C(Nc1ccccc1N1CCOCC1)c1cccs1 | inactive | –
19 | O=C(Nc1ccncc1)c1cc2ccccc2o1 | inactive | –
20 | COc1ccc(NC(=O)C2=C(C)NC(=O)NC2c2cccc(OC)c2OC)c(OC)c1 (stereo not given) | inactive | –
21 | CN(C(=O)NC1CCCCC1)c1ccccc1 | inactive | –
22 | COc1cc(N2CCOCC2)ccc1C=C1C(=O)NC(=O)NC1=O | inactive | –
23 | O=C(NC1=C(NC2CCS(=O)(=O)C2)C(=O)c2ccccc2C1=O)c1ccccc1 (stereo not given) | inactive | –
24 | CCNCc1cc(Br)c(OCC(=O)Nc2ccccc2)c(OC)c1 | inactive | –
25 | Cc1cc(C)c2nc3nc(C)cc(C)c3c(N)c2c1 | inactive | –
26 | COc1ccc(N2CCN(C(CNS(=O)(=O)c3ccc4c(c3)OCCO4)c3ccco3)CC2)cc1 (stereo not given) | – | inactive
27 | CC[n+]1c(/C=C/C=C/N(C(C)=O)c2ccccc2)sc2ccccc21 | inactive | –

Row | Compound | inhibition | outcome
28 | CN(C)c1ccc(C(=O)/C=C/c2ccc(Br)cc2)cc1 | inactive | –
29 | Cc1nc(NC(=O)CC(C)C)sc1-c1csc(Nc2ccc(Cl)cc2)n1 | inactive | –
30 | CCOC(=O)c1c(NC(=O)c2ccccc2N(C)S(=O)(=O)c2ccccc2)sc2c1CCCC2 | inactive | –
31 | O=C(Nc1n[nH]c(C(F)(F)F)n1)C1CC1 | inactive | –
32 | CN=c1scc(C)n1/N=C/c1ccc(O)c(O)c1O | inactive | –
33 | Cc1c(NC2=C(Cl)C(=O)N(c3ccccc3)C2=O)c(=O)n(-c2ccccc2)n1C | inactive | –
34 | CCSc1ncc(Cl)c(C(=O)Nc2sc3c(c2C(=O)NCc2cccnc2)CCCC3)n1 | inactive | –
35 | COc1ccc(C(=O)NC(=S)N2CCNC(=O)C2)cc1Br | – | inactive
36 | Oc1ccc(C=NCC2COc3ccccc3O2)cc1 (stereo not given) | inactive | –
37 | COc1ccc2c3c(cccc13)N(C)N=C2C | inactive | –
38 | CC1CCN(C2(O)C(=O)Nc3ccc(Br)cc32)CC1 (stereo not given) | – | inactive
39 | CCOC(=O)c1c(NC(C)=O)sc2c(O)c(Br)cc(Br)c12 | inactive | –
40 | Cc1cccc(C(=O)N2CCC(c3nc(-c4ccc(S(=O)(=O)N5CCOCC5)cc4)no3)CC2)c1 | inactive | –
41 | COc1cccc2c(SCC(=O)N/N=C/c3ccccc3)cc(C)nc12 | inactive | –
42 | Cc1ccc(N=c2ssnc2Cl)cc1 | inactive | –
43 | O=C(O)CCN1C(=O)/C(=C\c2ccc(-c3nc4ccccc4s3)o2)SC1=S | inactive | –
44 | CCSc1ncnc2sc(C)c(C)c12 | – | inactive
45 | O=C(NCc1ccccn1)c1ccc2nc(-c3ccco3)c(-c3ccco3)nc2c1 | inactive | –
46 | CN1/C(=C\C(=O)Nc2ccc(Cl)cc2)C(C)(C)c2ccccc21 | inactive | –
47 | CN1C2C=C3C(C#N)=C(N)C(C#N)(C#N)[C@@H](c4ccsc4)[C@@H]3C1CC2 (stereo not given in full) | inactive | –
48 | Nc1cccc(-c2cn3cccnc3n2)c1 | – | inactive
49 | O=C(NCCCN1CCCC1=O)NC1CCCCC1 | inactive | –
50 | COc1ccc(-n2c(SCC(=O)Nc3ccc(C(=O)O)cc3)nnc2-c2cccs2)cc1 | inactive | –
51 | CCCOc1ccc(-c2c(C(=O)N/N=C/c3ccc(OC)cc3)nnn2-c2nonc2N)cc1 | inactive | –
52 | O=C(NNC(=O)C12CC3CC(CC(C3)C1)C2)c1ccco1 | – | inactive
53 | N#Cc1cccc(N=c2ssnc2Cl)c1 | inactive | –
54 | Cc1ccc2c(c1)C1CN(C)CCC1N2C(=O)Nc1cccc(Cl)c1 (stereo not given) | inactive | –

Row | Compound | inhibition | outcome
55 | CCOC(=O)c1snc(-c2ccc(F)cc2)c1N | inactive | –
56 | Cc1ccc(Nc2nc(C)cs2)cc1 | – | inactive
57 | COc1ccc(CC(=O)Nc2ccc(C(=O)Nc3nccs3)cc2)cc1OC | inactive | –
58 | O=C(CNC(=O)c1ccc(S(=O)(=O)N2CCCC2)cc1)N/N=C/c1ccc(Cl)cc1Cl | – | inactive
59 | O=C(c1cc2ccccc2oc1=O)N(c1ccccc1)C1C=CS(=O)(=O)C1 (stereo not given) | inactive | –
60 | Cc1ccc(-n2[nH]c(C)c(/C=N/Nc3ccc([N+](=O)[O-])cc3[N+](=O)[O-])c2=O)cc1C | inactive | –
61 | Cc1ccc(NC2=C(Cl)C(=O)c3ccccc3C2=O)cc1 | inactive | –
62 | COc1ccc(NC(=O)/C(Cl)=C(/Cl)S(=O)Cc2ccccc2)cn1 (stereo not given) | inactive | –
63 | CCOC(=O)C1=C(CP(=O)(c2ccccc2)c2ccccc2)NC(=O)NC1c1ccc(OC)cc1 (stereo not given) | inactive | –
64 | CC1(C)Cc2c(ccc3ccccc23)/C(=C/C(=O)N2CCCCC2)N1 | inactive | –
65 | COc1ccc(/C=C2\SC(=O)NC2=S)cc1OC | inactive | –
66 | CS(=O)(=O)NN1C(=O)c2ccccc2NC1c1cccs1 (stereo not given) | inactive | –
67 | O=[N+]([O-])c1c(NCCCO)cc(Sc2nc3ccccc3s2)c2nonc12 | inactive | –
68 | c1ccc2c(N3CCOCC3)nc(N3CCOCC3)nc2c1 | inactive | –
69 | Cc1nn(-c2ccc(Cl)c(Cl)c2)c(C)c1C(=O)O | – | inactive
70 | O=C(c1cc(=O)c2ccccc2o1)N1CCN(c2ccccc2F)CC1 | inactive | –
71 | Fc1ccc(C2=Nn3c(Cc4ccccc4F)nnc3SC2)cc1 | inactive | –
72 | CCOc1ccc(N2C(=O)C(Cl)=C(Nc3ccccc3O)C2=O)cc1 | inactive | –
73 | c1ccc(C2=Nc3cccc4cccc(c34)N2)cc1 | inactive | –
74 | Cc1ccc(CC(=O)OCCNC(=O)c2cccnc2)cc1 | inactive | –
75 | CCN1CCN(CC(=O)c2c[nH]c3ccc(C)cc23)CC1 | inactive | –
76 | Cc1noc(C)c1COc1ccc(C(=O)Nc2cccnc2)cc1 | inactive | –
77 | C#CCOCCOCCOCCNc1nc(N2CCN(C(=O)[C@H]([C@@H](C)CC)n3cc([C@@H](N)CC(C)C)nn3)CC2)nc(N2CCN(C(=O)[C@H](Cc3cc4ccccc4[nH]3)n3cc([C@@H](N)Cc4ccc(O)cc4)nn3)CC2)n1 | inactive | –
78 | COc1ccccc1OCc1ccc(C(=O)Nc2ccccc2F)cc1 | inactive | –
79 | Cc1cc(NC(=O)CSc2nnc(-c3cccnc3)n2Cc2ccccc2)no1 | inactive | –
80 | COc1ccc(N2CCN(C(=O)c3cc(=O)[nH]c4ccccc34)CC2)cc1 | inactive | –
81 | O=C(COc1ccccc1Br)NCc1ccccn1 | inactive | –

Row | Compound | inhibition | outcome
82 | O=C(COc1ccccc1)Nc1ccc2c(c1)Cc1cc(NC(=O)COc3ccccc3)ccc1-2 | inactive | –
83 | CC1Nc2ccccc2C(=O)N1NS(=O)(=O)c1ccccc1 (stereo not given) | – | inactive
84 | Cc1nc2cc(F)ccc2n1C1CCN(C(=O)c2c(F)cccc2F)CC1 | inactive | –
85 | O=S1(=O)N=C(N(CCO)/N=C/c2ccncc2)c2ccccc21 | inactive | –
86 | O=C(Nc1nnc(C2CC2)s1)C1Cc2ccccc2CN1S(=O)(=O)c1ccccc1F (stereo not given) | inactive | –
87 | COc1ccc(NC(=O)COc2ncnc3ccccc23)cc1S(=O)(=O)N1CCOCC1 | inactive | –
88 | CCc1nnc(NS(=O)(=O)c2ccc(N=CC3=C(O)CC(C)(C)CC3=O)cc2)s1 | inactive | –
89 | CC(=O)N1CCN(C(=O)c2ccc(-n3c(C)ccc3C)cc2)CC1 | inactive | –
90 | CC1N(C)c2cccc3cccc(c23)N1C | inactive | –
91 | Cc1ccc(Nc2nc(-c3c(C)nc4ncccn34)cs2)cc1 | inactive | –
92 | Cc1[nH]c2ccccc2c1C(=O)COC(=O)c1c(-c2c(F)cccc2Cl)noc1C | inactive | –
93 | CC1CC2=C(NC(=S)NC2c2cccc(F)c2)/C(=C/c2cccc(F)c2)C1 (stereo not given) | – | inactive
94 | COc1cccc2c(SCC(=O)N/N=C/c3ccc(O)c(O)c3)cc(C)nc12 | inactive | –
95 | Cc1cccc(Nc2nc(-c3ccncc3)cs2)c1 | inactive | –
96 | CCOc1ccc(C(=O)Nc2nnn(CC)n2)cc1 | inactive | –
97 | Cc1ccc(NC(=O)C/C(N)=N/OC(=O)c2ccccc2)cc1 | inactive | –
98 | CCCCCCc1cc2cc(C(=O)Nc3ccccc3)c(=O)oc2cc1O | inactive | –
99 | CCN(CC)C(=O)COC(=O)c1cc(-c2ccco2)nc2ccccc12 | – | inactive
100 | CCCC1(C(=O)OCC)NC(c2cc(OC)c(OC)c(OC)c2)C2C(=O)N(CC)C(=O)C21 (stereo not given) | inactive | –
101 | CC(C)CN1C(=O)/C(=C/c2ccco2)NC1=S | inactive | –
102 | COc1ccc(COC(=O)NNC(=O)c2ccccc2Cl)cc1 | inactive | –
103 | COc1ccc(NC(=O)c2ccc(CN3CCN(c4ccccc4)CC3)cc2)cc1 | inactive | –
104 | COc1cc(N=c2ssnc2Cl)cc(OC)c1OC | inactive | –
105 | COc1cc2c(cc1OC)C(c1ccccc1F)OC(=O)C2 (stereo not given) | inactive | –
